Compound | melting point
CN(C)c1cc2c(cc1Cl)NC(=O)CC(c1cccc(C#N)c1)=N2 [Example 1, 3-(7-Chloro-8-dimethylamino-4-oxo-4,5-dihydro-3H-benzo[b][1,4]diazepin-2-yl)-benzonitrile] | > 250 °C
CN(C)c1cc2c(cc1Cl)NC(=O)CC(c1cccc(-n3ccnn3)c1)=N2 [Example 2, 8-Chloro-7-dimethylamino-4-(3-[1,2,3]triazol-1-yl-phenyl)-1,3-dihydro-benzo[b][1,4]diazepin-2-one] | 222 to 225 °C
CN(C)c1cc2c(cc1C#Cc1ccccc1)NC(=O)CC(c1cccc(C#N)c1)=N2 [Example 4, 3-(8-Dimethylamino-4-oxo-7-phenylethynyl-4,5-dihydro-3H-benzo[b][1,4]diazepin-2-yl)-benzonitrile] | 215 to 216 °C
CN(C)c1cc2c(cc1C#Cc1ccccc1)NC(=O)CC(c1cccc(-n3ccnn3)c1)=N2 [Example 5, 7-Dimethylamino-8-phenylethynyl-4-(3-[1,2,3]triazol-1-yl-phenyl)-1,3-dihydro-benzo[b][1,4]diazepin-2-one] | 185 to 186 °C
Cc1cc(-c2cccc(C3=Nc4cc(N(C)C)c(Cl)cc4NC(=O)C3)c2)on1 [Example 6, 8-Chloro-7-dimethylamino-4-[3-(3-methyl-isoxazol-5-yl)-phenyl]-1,3-dihydro-benzo[b][1,4]diazepin-2-one] | 212 to 215 °C
Cc1cc(-c2cc(C3=Nc4cc(N(C)C)c(Cl)cc4NC(=O)C3)ccn2)on1 [Example 10, 8-Chloro-7-dimethylamino-4-[2-(3-methyl-isoxazol-5-yl)-pyridin-4-yl]-1,3-dihydro-benzo[b][1,4]diazepin-2-one] | > 250 °C
COCCN(C)c1cc2c(cc1Cl)NC(=O)CC(c1ccnc(-c3cc(C)no3)c1)=N2 [Example 12, 8-Chloro-7-[(2-methoxy-ethyl)-methyl-amino]-4-[2-(3-methyl-isoxazol-5-yl)-pyridin-4-yl]-1,3-dihydro-benzo[b][1,4]diazepin-2-one] | 213 °C
COCCN(C)c1cc2c(cc1Cl)NC(=O)CC(c1cccc(-n3nncc3CO)c1)=N2 [Example 13, 8-Chloro-4-[3-(5-hydroxymethyl-[1,2,3]triazol-1-yl)-phenyl]-7-[(2-methoxy-ethyl)-methyl-amino]-1,3-dihydro-benzo[b][1,4]diazepin-2-one] | 185 °C
COCCN(C)c1cc2c(cc1Cl)NC(=O)CC(c1cccc(-n3ccnn3)c1)=N2 [Example 14, 8-Chloro-7-[(2-methoxy-ethyl)-methyl-amino]-4-(3-[1,2,3]triazol-1-yl-phenyl)-1,3-dihydro-benzo[b][1,4]diazepin-2-one] | 156 °C
CN(C)c1cc2c(cc1Cl)NC(=O)CC(c1ccnc(C#N)c1)=N2 [Example 15, 4-(7-Chloro-8-dimethylamino-4-oxo-4,5-dihydro-3H-benzo[b][1,4]diazepin-2-yl)-pyridine-2-carbonitrile] | 216 °C
CN(C)c1cc2c(cc1C(F)(F)F)NC(=O)CC(c1cccc(-n3nncc3CO)c1)=N2 [Example 17, 7-Dimethylamino-4-[3-(5-hydroxymethyl-[1,2,3]triazol-1-yl)-phenyl]-8-trifluoromethyl-1,3-dihydro-benzo[b][1,4]diazepin-2-one] | 210 °C
Cc1cc(-c2cccc(C3=Nc4cc(N(C)C)c(C(F)(F)F)cc4NC(=O)C3)c2)on1 [Example 18, 7-Dimethylamino-4-[3-(3-methyl-isoxazol-5-yl)-phenyl]-8-trifluoromethyl-1,3-dihydro-benzo[b][1,4]diazepin-2-one] | 223 °C
CN(C)Cc1cnnn1-c1cccc(C2=Nc3cc(N(C)C)c(Cl)cc3NC(=O)C2)c1 [Example 20, 8-Chloro-7-dimethylamino-4-[3-(5-dimethylaminomethyl-[1,2,3]triazol-1-yl)-phenyl]-1,3-dihydro-benzo[b][1,4]diazepin-2-one] | 145 to 160 °C
COCc1cc(-c2cccc(C3=Nc4cc(N(C)C)c(Cl)cc4NC(=O)C3)c2)on1 [Example 21, 8-Chloro-7-dimethylamino-4-[3-(3-methoxymethyl-isoxazol-5-yl)-phenyl]-1,3-dihydro-benzo[b][1,4]diazepin-2-one] | 191 °C
CN(C)c1cc2c(cc1C(F)(F)F)NC(=O)CC(c1ccnc(C#N)c1)=N2 [Example 22, 4-(8-Dimethylamino-4-oxo-7-trifluoromethyl-4,5-dihydro-3H-benzo[b][1,4]diazepin-2-yl)-pyridine-2-carbonitrile] | 248 °C
O=C1CC(c2cccc(-n3ccnc3)c2)=Nc2cc(OCC(F)(F)F)c(-c3ccccc3F)cc2N1 [Example 23, 8-(2-Fluoro-phenyl)-4-(3-imidazol-1-yl-phenyl)-7-(2,2,2-trifluoro-ethoxy)-1,3-dihydro-benzo[b][1,4]diazepin-2-one] | 208 to 210 °C
O=C1CC(c2cccc(-n3nncc3CO)c2)=Nc2cc(OCC(F)(F)F)c(-c3ccccc3F)cc2N1 [Example 26, 8-(2-Fluoro-phenyl)-4-[3-(5-hydroxymethyl-[1,2,3]triazol-1-yl)-phenyl]-7-(2,2,2-trifluoro-ethoxy)-1,3-dihydro-benzo[b][1,4]diazepin-2-one] | 232 to 234 °C
CCN(C)c1cc2c(cc1Cl)NC(=O)CC(c1cccc(-n3nncc3CO)c1)=N2 [Example 28, 8-Chloro-7-(ethyl-methyl-amino)-4-[3-(5-hydroxymethyl-[1,2,3]triazol-1-yl)-phenyl]-1,3-dihydro-benzo[b][1,4]diazepin-2-one] | 206 °C (dec.)
CN(C)c1cc2c(cc1Cl)NC(=O)CC(c1cccc(-c3cc(CO)no3)c1)=N2 [Example 31, 8-Chloro-7-dimethylamino-4-[3-(3-hydroxymethyl-isoxazol-5-yl)-phenyl]-1,3-dihydro-benzo[b][1,4]diazepin-2-one] | 132 °C
CN(C)c1cc2c(cc1C(F)(F)F)NC(=O)CC(c1cccc(-c3ccnn3C)c1)=N2 [Example 33, 7-Dimethylamino-4-[3-(2-methyl-2H-pyrazol-3-yl)-phenyl]-8-trifluoromethyl-1,3-dihydro-benzo[b][1,4]diazepin-2-one] | 225 °C
CN(c1cc2c(cc1Cl)NC(=O)CC(c1ccnc(C#N)c1)=N2)C1CC1 [Example 34, 4-[7-Chloro-8-(cyclopropyl-methyl-amino)-4-oxo-4,5-dihydro-3H-benzo[b][1,4]diazepin-2-yl]-pyridine-2-carbonitrile] | 199 to 201 °C
Cc1noc(-c2cccc(C3=Nc4cc(N(C)C)c(Cl)cc4NC(=O)C3)c2)c1CO [Example 35, 8-Chloro-7-dimethylamino-4-[3-(4-hydroxymethyl-3-methyl-isoxazol-5-yl)-phenyl]-1,3-dihydro-benzo[b][1,4]diazepin-2-one] | 232 to 233 °C
Cc1cc(-c2cccc(C3=Nc4cc(N(C)C5CC5)c(Cl)cc4NC(=O)C3)c2)on1 [Example 36, 8-Chloro-7-(cyclopropyl-methyl-amino)-4-[3-(3-methyl-isoxazol-5-yl)-phenyl]-1,3-dihydro-benzo[b][1,4]diazepin-2-one] | 195 to 197 °C
CN(C)Cc1cnnn1-c1cccc(C2=Nc3cc(N(C)C)c(C(F)(F)F)cc3NC(=O)C2)c1 [Example 38, 7-Dimethylamino-4-[3-(5-dimethylaminomethyl-[1,2,3]triazol-1-yl)-phenyl]-8-trifluoromethyl-1,3-dihydro-benzo[b][1,4]diazepin-2-one] | 200 °C

— patent US6544985B2, “Dihydro-benzo [b][1,4]diazepin-2-one derivatives” (Hoffman-La Roche Inc., priority 2001, dated 2003)
